{
  "source": "patent US20090117146A1",
  "about": "(priority 2005, published 2009)",
  "origin": "cited, not measured here",
  "tested_on": "adenyl cyclase",
  "details": "follicles of scalp hair",
  "data": [
    {"smiles": "C[C@]12CCC(=O)C[C@@H]1CC[C@@H]1[C@@H]2CC[C@]2(C)[C@@H](O)CC[C@@H]12", "note": "[dihydrotestosterone]", "values": [
      {"measurement": "effect on adenyl cyclase activity", "value": "inhibits adenyl cyclase activity"}
    ]},
    {"smiles": "C[C@]12CC[C@H]3[C@@H](CCC4=CC(=O)CC[C@@]43C)[C@@H]1CC[C@@H]2O", "note": "[testosterone]", "values": [
      {"measurement": "effect on adenyl cyclase activity", "value": "does not"}
    ]}
  ]
}
